Results reported in US20240116909A1, “NOVEL COMPOUNDS USEFUL AS STING AGONISTS AND USES THEREOF” (priority 2021, published 2024).
pIC50: −log10 of the molar value.

Each molecule was assayed against human STING WT (Homo sapiens (Human), UniProt Q86WV6) (assay: Human STING WT binding assay (Cisbio HTRF)). Conditions: human STING WT protein 6His-tagged, 3 hours at RT, read-out: hSTING WT binding IC50.
Experimental: Cisbio Bioassays' human STING WT binding assay (#64BDSTGPEG & 64BDSTGPEH, Cisbio) is for quantitative measurement of human STING WT ligand using HTRF® technology.
Negative control: Dispense 5 μL of diluent into each negative control well. Standard: Dispense 5 μL of each Human STING WT Standard 2′3′-cGAMP (Std 0-Std 7) into each standard well. Compound: Dispense 5 μL of compound into each compound well.
Negative control: Add 5 μL of detection buffer to all wells. Other wells: Add 5 μL of human STING WT protein 6His-tagged protein to all wells.
Add 10 μL of premixed STING WT ligand d2 reagent and 6His Tb antibody working solution to all wells.
Seal the plate and incubate 3 hours at RT or at Over Night if necessary.
Remove the plate sealer and read on an HTRF® compatible reader (PerkinElmer, USA). Results were analyzed with a two-wavelength signal ratio: intensity (665 nm)/intensity (620 nm).
Fit the data in GraphPad to obtain IC50 values using equation (2)
Y=Bottom+(Top−Bottom)/(1+10^((Log IC50−X)*Hill Slope)) Equation (2): […]
Y is HTRF Ratio and X is compound concentration.

Sequence of human STING WT (Q86WV6 whole entry): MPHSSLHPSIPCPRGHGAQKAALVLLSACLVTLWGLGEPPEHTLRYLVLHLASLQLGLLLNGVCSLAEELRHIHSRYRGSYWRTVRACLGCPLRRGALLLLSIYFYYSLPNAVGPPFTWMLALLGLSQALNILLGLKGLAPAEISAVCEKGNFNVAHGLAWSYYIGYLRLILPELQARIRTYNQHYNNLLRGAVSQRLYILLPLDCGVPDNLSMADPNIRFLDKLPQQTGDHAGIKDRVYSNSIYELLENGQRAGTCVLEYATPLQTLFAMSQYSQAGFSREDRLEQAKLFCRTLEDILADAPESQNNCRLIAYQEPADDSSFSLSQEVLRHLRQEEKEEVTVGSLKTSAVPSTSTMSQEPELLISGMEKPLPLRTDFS

Row | SMILES | pIC50
1 | COc1cc2sc(C(=O)[C@H]3C[C@@H]3C(=O)O)cc2cc1OCCCOc1c(OC)cc2c(c1F)CN(C(=O)CCC(=O)O)C2 (relative stereo) [Example 21, trans-2-(5-(3-((2-(3-carboxypropanoyl)-4-fluoro-6-methoxyisoindolin-5-yl)oxy)propoxy)-6-methoxybenzo[b]thiophene-2-carbonyl)cyclopropane-1-carboxylic Acid] | 6.80
2 | COc1cc2c(cc1OCCCOc1cc3cc(C(=O)CCC(=O)O)sc3cc1OC)CN(C(=O)CCC(=O)O)C2 [Example 1, 4-(5-(3-((2-(3-carboxypropanoyl)-6-methoxybenzo[b]thiophen-5-yl)oxy)propoxy)-6-methoxyisoindolin-2-yl)-4-oxobutanoic Acid] | 10.22
3 | COc1cc2c(c(Cl)c1OCCCOc1c(OC)cc3sc(C(=O)CCC(=O)O)cc3c1F)CN(C(=O)CCC(=O)O)C2 [Example 2, 4-(5-(3-((2-(3-carboxypropanoyl)-4-chloro-6-methoxyisoindolin-5-yl)oxy)propoxy)-4-fluoro-6-methoxybenzo[b]thiophen-2-yl)-4-oxobutanoic Acid] | 7.94
4 | COc1cc2c(c(F)c1OCCCOc1c(OC)cc3sc(C(=O)CCC(=O)O)cc3c1Cl)CN(C(=O)CCC(=O)O)C2 [Example 3, 4-(5-(3-((2-(3-carboxypropanoyl)-4-chloro-6-methoxybenzo[b]thiophen-5-yl)oxy)propoxy)-4-fluoro-6-methoxyisoindolin-2-yl)-4-oxobutanoic Acid] | 8.08
5 | COc1cc2c(c(F)c1OCCCOc1c(OC)cc3sc(C(=O)CCC(=O)O)cc3c1F)CN(C(=O)CCC(=O)O)C2 [Example 4, 4-(5-(3-((2-(3-carboxypropanoyl)-4-fluoro-6-methoxybenzo[b]thiophen-5-yl)oxy)propoxy)-4-fluoro-6-methoxyisoindolin-2-yl)-4-oxobutanoic Acid] | 9.74
6 | COc1cc2c(cc1OCCCOc1cc3cc(C(=O)C[C@H](C)C(=O)O)sc3cc1OC)CN(C(=O)C[C@H](C)C(=O)O)C2 [Example 5, Sodium (S)-4-(5-(3-((2-((S)-3-carboxylatobutanoyl)-6-methoxybenzo[b]thiophen-5-yl)oxy)propoxy)-6-methoxyisoindolin-2-yl)-2-methyl-4-oxobutanoate] | 9.49
7 | COc1cc2c(cc1OCCCOc1c(OC)cc3sc(C(=O)C[C@H](C)C(=O)O)cc3c1F)CN(C(=O)C[C@H](C)C(=O)O)C2 [Example 6, Sodium (S)-4-(5-(3-((2-((S)-3-carboxylatobutanoyl)-4-fluoro-6-methoxybenzo[b]thiophen-5-yl)oxy)propoxy)-6-methoxyisoindolin-2-yl)-2-methyl-4-oxobutanoate] | 9.44
8 | COc1cc2c(cc1OCCCOc1nc3cc(C(=O)CCC(=O)O)sc3cc1OC)CN(C(=O)CCC(=O)O)C2 [Example 8, Sodium 4-(5-(3-((2-(3-carboxylatopropanoyl)-6-methoxyisoindolin-5-yl)oxy)propoxy)-6-methoxythieno[3,2-b]pyridin-2-yl)-4-oxobutanoate] | 9.19
9 | COc1cc2c(cc1OCCCOc1cc3cc(C(=O)CCC(=O)O)sc3cc1Br)CN(C(=O)CCC(=O)O)C2 [Example 9, 4-(5-(3-((6-bromo-2-(3-carboxypropanoyl)benzo[b]thiophen-5-yl)oxy)propoxy)-6-methoxyisoindolin-2-yl)-4-oxobutanoic Acid] | 8.65
10 | COc1cc2sc(C(=O)CCC(=O)O)cc2cc1OCCCOc1c(OC)cc2c(c1F)CN(C(=O)CCC(=O)O)C2 [Example 10, 4-(5-(3-((2-(3-carboxypropanoyl)-4-fluoro-6-methoxyisoindolin-5-yl)oxy)propoxy)-6-methoxybenzo[b]thiophen-2-yl)-4-oxobutanoic Acid] | 9.55
11 | COc1cc2c(nc1OCCCOc1nc3cc(C(=O)CCC(=O)O)sc3cc1OC)CN(C(=O)CCC(=O)O)C2 [Example 11, 4-(5-(3-((6-(3-carboxypropanoyl)-3-methoxy-6,7-dihydro-5H-pyrrolo[3,4-b]pyridin-2-yl)oxy)propoxy)-6-methoxythieno[3,2-b]pyridin-2-yl)-4-oxobutanoic Acid] | 8.60
12 | COc1cc2sc(C(=O)CCC(=O)O)cc2cc1OCCCOc1c(OC)cc2c(c1Cl)CN(C(=O)CCC(=O)O)C2 [Example 14, 4-(5-(3-((2-(3-carboxypropanoyl)-4-chloro-6-methoxyisoindolin-5-yl)oxy)propoxy)-6-methoxybenzo[b]thiophen-2-yl)-4-oxobutanoic Acid] | 7.33
13 | COc1cc2c(cc1OCCCOc1cc3sc(C(=O)CCC(=O)O)cc3nc1OC)CN(C(=O)CCC(=O)O)C2 [Example 15, 4-(5-(3-((2-(3-carboxypropanoyl)-5-methoxythieno[3,2-b]pyridin-6-yl)oxy)propoxy)-6-methoxyisoindolin-2-yl)-4-oxobutanoic Acid] | 7.03
14 | C=C(COc1c(OC)cc2c(c1Cl)CN(C(=O)CCC(=O)O)C2)COc1c(OC)cc2sc(C(=O)CCC(=O)O)cc2c1F [Example 16, 4-(5-((2-(((2-(3-carboxypropanoyl)-4-chloro-6-methoxyisoindolin-5-yl)oxy)methyl)allyl)oxy)-4-fluoro-6-methoxybenzo[b]thiophen-2-yl)-4-oxobutanoic Acid] | < 6.82
15 | COc1cc2c(c(F)c1OCCCOc1c(OC)cc3sc(C(=O)C[C@H](C)C(=O)O)cc3c1F)CN(C(=O)C[C@H](C)C(=O)O)C2 [Example 17, (S)-4-(5-(3-((2-((S)-3-carboxybutanoyl)-4-fluoro-6-methoxybenzo[b]thiophen-5-yl)oxy)propoxy)-4-fluoro-6-methoxyisoindolin-2-yl)-2-methyl-4-oxobutanoic Acid] | 9.72
16 | COc1cc2c(cc1OCCCOc1cc3cc(C(=O)NCCC(=O)O)sc3cc1OC)CN(C(=O)CCC(=O)O)C2 [Example 18, 4-(5-(3-((2-((2-carboxyethyl)carbamoyl)-6-methoxybenzo[b]thiophen-5-yl)oxy)propoxy)-6-methoxyisoindolin-2-yl)-4-oxobutanoic Acid] | 8.34
17 | C=C(COc1cc2c(cc1OC)CN(C(=O)CCC(=O)O)C2)COc1cc2cc(C(=O)CCC(=O)O)sc2cc1OC [Example 19, 4-(5-((2-(((2-(3-carboxypropanoyl)-6-methoxybenzo[b]thiophen-5-yl)oxy)methyl)allyl)oxy)-6-methoxyisoindolin-2-yl)-4-oxobutanoic Acid] | 7.26
18 | COc1cc2c(cc1OCCCOc1c(OC)cc3sc(C(=O)CCC(=O)O)cc3c1F)CN(C(=O)CCC(=O)O)C2 [Example 20, 4-(5-(3-((2-(3-carboxypropanoyl)-4-fluoro-6-methoxybenzo[b]thiophen-5-yl)oxy)propoxy)-6-methoxyisoindolin-2-yl)-4-oxobutanoic Acid] | 9.72
